Measured values: patent US5672707A (priority 1991, dated 1997)
Like-named read-outs stand apart in the source and are kept apart here.

Key:
in vivo = conditions: for LD50: in vivo, ip
Description: (§1) Psychoneurotropic activity of the declared compounds and their influence on learning and memory were observed using unbred male (18-20 g) mice and 180-200 g) rats, held at standard conditions (room temperature 21°-22° C., 12-hours lighting schedule, food and water ad libitum).
Acute toxicity was studied by the method of Kerber with intra peritoneal drug injection.

mice [1] = assay: Psychotropic activity test: motor activity; format: in vivo; conditions: intraperitoneally, dose 1/20 of LD
mice [2] = assay: Psychotropic activity test: arecoline induced hyperkynesis; format: in vivo; conditions: intraperitoneally, dose 1/20 of LD
rats [3] = assay: Passive avoidance test in normal rats, 50% acquisition; format: in vivo; conditions: Rattus norvegicus, ip, 20 min, read-out: Increase of the number of correct trails (% to control). Passive avoidance test (rats)
In short: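 Unbred rats (180–200 g) were kept at 21–22 °C on a 12-h light cycle with free food and water. Passive avoidance was run under 50% acquisition conditions within 24 h after the last dose. Effect was scored as the rise in the proportion of learned animals versus controls.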

mice [4] = assay: Step-down test, scopolamine induced amnesia; format: in vivo
Description: as §1

rats [5] = assay: Passive avoidance test on the model of amnestic syndrome (multiple scopolamine injection); format: in vivo
Description: The influence of drugs on reflex conditioning in rats was studied by the passive avoidance test in conditions of 50% acquisition. The effect of the compound was estimated by the increase of the relative number of learned animals with respect to that of control group. […] The passive avoidance test was performed within 24 hours after the last application of test preparations.

[6] = system: membranes of brain synaptosomes; assay: Microviscosity of brain synaptosome membranes, amnestic syndrome model; format: in vivo, rats; conditions: for Microviscosity changes in % to control: rats, scopolamine 20 days, then drug 10 days, brain synaptosomes
old rats = assay: Passive avoidance test in old rats; format: in vivo; conditions: for Passive avoidance latency in 7 days after training: old rats (18 month), 20 days application, 1 mg/kg (piracetam 250 mg/kg)
Description: The influence of drugs on reflex conditioning in rats was studied by the passive avoidance test in conditions of 50% acquisition. The effect of the compound was estimated by the increase of the relative number of learned animals with respect to that of control group. […] The other reference drug--noothropic agent piracetam--was given in the dose 250 mg/kg 60 min before training. Amnestic syndrome was stimulated by 20 days application of Sc at the daily dose of 1 mg/kg intraperitoneally. […] The passive avoidance test was performed within 24 hours after the last application of test preparations.
Improvement of animal performance was accompanied by the normalizing of brain synaptosomes microviscosity under the action of all the substances tested. […] The latter observation indicates to the possible interference of amiridine and substance Vo into the processes of atherogenesis in old animals.

[7] = system: membranes of brain synaptosomes; assay: Microviscosity of brain synaptosome membranes, old rats; format: in vivo; conditions: old rats (18 month), 20 days application
Description: Microviscosity of membranes of brain synaptosomes was studied with the use of molecular probe pirren. Brain tissue homogenization and preparation of synaptosomes were performed by the method of De Robertis.

brain synaptosomes = assay: Cholesterol content in brain synaptosomes, old rats; format: in vivo; conditions: for Cholesterol content of brain synaptosomes, old rats: 20 days course; for Cholesterol content in synaptosomes (% from total lipid content): old rats (18 month), 20 days application
rat adipocytes [8] = assay: Lipid composition of adipocytes after incubation with compounds; format: cell-based
Description: (§2) Lipid regulative activity of the declared compounds--derivatives of 9-amino acridine--were evaluated in vitro[…] using rat adipocytes. Adipocytes were separated from adipose tissue of testis appendages of adult male rats. Lipid composition analysis was performed by the method of thin-layer chromatography.
(§3) Quantitative analysis of phospholipids (PL), mono- and diacylglycerides (MDG), triacylglycerides (TG), free fatty acids (FFA), free cholesterol (FCL), and methyl esters of fatty acids (MEFA) was performed by the method of spectrophotometry.

rat adipocytes [9] = assay: Lipid content in incubation medium after incubation of adipocytes; format: cell-based
Description: as §2, §3

K channels = assay: Ionic permeabilities of excitable membranes, voltage clamp in the Ranvier node; format: cell-based, frog
[10] = intraperitoneal injection, Table 5, read-out: LD50 (mg/kg) by Kerber
[11] = rats, scopolamine 1 mg/kg 20 days, then drug 10 days (1 mg/kg; piracetam 250 mg/kg)
[12] = distribution between cells and incubation medium, Table 13

| SMILES | LD50 (in vivo; [10]) [mg/kg] | LD50 (in vivo; read-out: LD) [mg/kg] | Motor activity increment (% to control) (mice [1]) | Increase of duration of arecoline induced hyperkynesis (% to control) (mice [2]) | Antiamnestic activity in Step-down test (% of mice with latency > cut off) (mice [4]) | Passive avoidance latency (rats [5]; [11]) [s] | Microviscosity changes in % to control [6] | Passive avoidance latency in 7 days after training (old rats) [s] | Microviscosity changes (% to control) [7] | Cholesterol content of brain synaptosomes, old rats (brain synaptosomes) | Cholesterol content in synaptosomes (% from total lipid content) (brain synaptosomes) | change in vivo at 0.1 mg/kg (rats [3]) [%] | further results |
| --- | --- | --- | --- | --- | --- | --- | --- | --- | --- | --- | --- | --- | --- |
| Nc1c2c(nc3c1CCC3)CCCC2 [Amiridine, amiridine, reference compound] | 52 ± 3.4 | 35 | 45 % to control | 100 % to control | 33 % of mice | 149.0 ± 11.7 | 105.0 % to control | 116.1 ± 16.9 | 101.7 % to control | normalized the cholesterol content of brain synaptosomes | 33.2 ± 0.8 % from total lipid content | – | change in vivo at 0.1 mg/kg (rats [3]; rats, 0.1 mg/kg i.p. 20 min before training, piracetam 250 mg/kg 60 min before training): 70% |
| Nc1c2c(nc3ccccc13)CCCC2 [Tacrine, tacrine, reference compound] | 35.5 ± 1.8 | 52 | 0 % to control | 88 % to control | 33 % of mice | – | 97.2 % to control | 163.4 ± 16.5 | 101.4 % to control | – | 39.7 ± 1.4 % from total lipid content | 25 | Passive avoidance latency (rats [5]; 1 mg/kg): 169.0 ± 14.8 s |
| CCCCNc1c2c(nc3ccccc13)CC(C)(C)CC2=O [Vo] | – | – | – | – | – | – | – | – | – | – | – | – | Performance in passive avoidance test, amnestic syndrome (rats [5]; 10 days application course): improved performance in passive avoidance test in the 10 days application course to the level achieved under the treatment with reference drugs; Microviscosity of brain synaptosomes, amnestic syndrome ([6]; 10 days application course): normalizing of microviscosity of brain synaptosomes; Change of lipid composition in adipocytes (rat adipocytes [8]): Accumulation of phospholipids in a cell; Content of methyl esters of fatty acids in adipocytes (rat adipocytes [8]): sharp decreases; PL/TG relations and cell cholesterol level (rat adipocytes [8]): increase PL/TG relations and decrease cell cholesterol level; Potency of effect on lipid composition of adipocytes (rat adipocytes [8]): most potent effect on lipid composition of adipocytes; Ejection of triacylglycerides into external medium (rat adipocytes [9]): enhanced ejection of triacylglycerides into external medium |
| CCCCNc1c2c(nc3ccccc13)CC(C)(C)CC2=O [Vp] | – | – | 69 % to control | 0 % to control | 25 % of mice | 170.3 ± 14.9 | 93.8 % to control | 169.4 ± 10.5 | 97.9 % to control | normalized the cholesterol content of brain synaptosomes | 30.1 ± 2.4 % from total lipid content | 25 | LD50 (mg/kg) by Kerber (in vivo; intraperitoneal injection, Table 5): 200.0 ± 21.9 mg/kg; Antiamnestic activity in Step-down test (mice [4]): pronounced antiatonestic activity, comparable with that of amiridine and tacrine; Capability to induce the shift of potassium permeability voltage dependency (K channels): most pronounced capability to induce the shift of potassium permeability voltage dependency; Performance of old rats in passive avoidance test (old rats; 20 days course, age 18 months): improved performance of old rats (age 18 months) in passive avoidance test more significantly than in 6 month old adult rats; Lipid-regulative effect compared with probucol (rat adipocytes [8]): not inferior; FFA/TG in adipocytes (rat adipocytes [8]; cells, Table 11): 1.03; PL/CL in adipocytes (rat adipocytes [8]; cells, Table 11): 0.83; PL/TG in adipocytes (rat adipocytes [8]; cells, Table 11): 0.89; FFAc/FFAm (rat adipocytes [8]; [12]): 0.93; PLc/PLm (rat adipocytes [8]; [12]): 1.41; FFA/TG in incubation medium (rat adipocytes [9]; incubation medium, Table 12): 0.92; PL/CL in incubation medium (rat adipocytes [9]; incubation medium, Table 12): 0.65; PL/TG in incubation medium (rat adipocytes [9]; incubation medium, Table 12): 0.52 |
